Consider two molecules from ChEMBL document CHEMBL1817616, “Synthesis, characterization and biological evaluation of some 16β-azolyl-3β-amino-5α-androstane derivatives as potential anticancer agents” (Eur J Med Chem, 2011).

SMILES strings stand for the structures. Bounds are passed on as bounds.

For assay [1], the system named is HEK293. In words: Cytotoxicity against human HEK293 cells after 48 hrs by MTT assay. The class given is cell-based. Conditions: HEK293, 48 h. For orientation: Tetrazolium dyes change colour on reduction, which living cells bring about.
Assay [2] relates to SiHa. The assay can be described thus: Anticancer activity against human SiHa cells after 48 hrs by MTT assay. The class given is functional, cell-based.
Assay [3] deals with SW480. The assay can be described thus: Anticancer activity against human SW480 cells after 48 hrs by MTT assay. It counts as functional, cell-based. Particulars: SW480, 48 h.
For assay [4], the system named is HepG2. The assay can be described thus: Anticancer activity against human HepG2 cells after 48 hrs by MTT assay. The class given is functional, cell-based. Conditions: HepG2, 48 h.
Assay [5] has as its system HeLa. In words: Anticancer activity against human HeLa cells after 48 hrs by MTT assay. It counts as functional, cell-based.
The subject of assay [6] is A549. The assay can be described thus: Anticancer activity against human A549 cells after 48 hrs by MTT assay. Conditions: A549, 48 h. It counts as functional, cell-based.

Consider `CC(=O)O[C@H]1[C@@H](n2nnc3ccccc32)C[C@H]2[C@@H]3CC[C@H]4C[C@@H](N(C)Cc5ccccc5)CC[C@]4(C)[C@H]3CC[C@@]21C`, for which the IC50 is 48.7 µM in assay [1]; 26.2 µM in assay [2]; greater than 50 µM in assay [3]; 5.54 µM in assay [4]; 11.3 µM in assay [5]; 7.72 µM in assay [6].

For the molecule `CC(=O)O[C@H]1[C@@H](n2nnc3ccccc32)C[C@H]2[C@@H]3CC[C@H]4C[C@@H](N(C)c5ccccc5)CC[C@]4(C)[C@H]3CC[C@@]21C`, the IC50 was greater than 80 µM in assay [1]; 9.83 µM in assay [2]; 18.6 µM in assay [3]; 6.36 µM in assay [4]; 10.4 µM in assay [5]; 5.12 µM in assay [6].

Usually IC50 stands for the midpoint of a concentration-inhibition curve.
